# Entries after “also recorded” stand apart in the source; their conditions may differ. Like-named read-outs stand apart in the source and are kept apart here.
# Tests used:
# LsrK [1] = target: T1, LsrK (Salmonella typhimurium, UniProt Q8ZKQ6); test: SPR assay; assay type: binding; conditions: for Kd: His-tagged LsrK on NTA chip, 50 to 1.56 µM, affinity binding model; for LsrK specific binding (in words): SPR
# From the text: (§1) To express LsrK with a 6 × His-tag at the C-terminus, the LsrK encoding gene of Salmonella typhimurium was amplified using primers carrying restriction endonuclease sites BamHI and XhoI. The amplified product was cloned into the expression vector pET-28a with a C-terminal 6 × His-tag and transfected into E. coli BL21 (DE3).
# His-tagged LsrK was immobilized in the NTA sensor chip (GE Healthcare) in Biacore 8 K using a running buffer consisting of 1 × PBS-T and 5% v/v DMSO. Serially diluted small molecules (concentration range: 50 to 1.56 µM) were injected. Intermediate concentration (12.5 µM) was set as a repeat, and 1 × PBS-T with 5% v/v DMSO was set as the control. The association time was set to 120 s; the dissociation time was set to 130 s; and the flow rate was set to 30 μL/min. The resulting data were fitted to the affinity binding model using Biacore Evaluation Software (GE Healthcare).
# LsrK [2] = target: T1, LsrK; test: LsrK inhibition assay (Kinase-Glo luminescence); assay type: biochemical; conditions: for IC50 / inhibition at 200 µM / Inhibition (%): mean ± SD, n = 3; for inhibition at 200 µM: Table 1, hits at 200 μM with 100 μM ATP; for type of LsrK inhibition: from IC50 values at 50, 100 and 150 μM ATP; for Inhibition (%): Supplementary Table 1, 200 uM compound, * = colour of the compound interferes with luminescence
# Method: as §1
# This assay was performed as previously described ([Gatta et al., 2019]), and the conditions were optimized. […] 74 purchased compounds were dissolved in dimethyl sulfoxide (20% v/v DMSO in reaction buffer) at a concentration of 2 mM. Briefly, 10 μL DPD, 10 μL LsrK, and 5 μL compound were added to a 96-well plate, and 25 μL ATP or 25 μL reaction buffer was added after 30 min incubation. The plate was incubated for 10 min at 37°C, then 50 μL of kit reagent was added, and the plate was incubated at 37°C for 15 min. The luminescence signal was measured using an Enspire 2300 microplate reader (PerkinElmer). Dose-response tests were carried out to verify the activity of hits chosen by primary screening. (200 μM–6.25 µM) ([Medarametla et al., 2018]). The inhibition percentage of each tested compound was determined as previously described and IC50 was calculated using four logistic parameters.
# [3] = tested on: AI-2-mediated QS (lsr promoter luminescence, reporter strain WHQ02); test: Cell-based AI-2-mediated QS interference assay; parameters: species or system E. coli; conditions: for AI-2 QS inhibitory activity (in words) / maximum AI-2 QS inhibition: 100 to 3.13 μM; for IC50: Escherichia coli, cell-based QS interference assay, WHQ02, mean ± SD, n = 3
# From the text: All chemicals were purchased from Sigma-Aldrich (St. Louis, MO, United States) unless otherwise stated. DPD was purchased from the […] ZZBIO Co., LTD. (Shanghai, China). The Kinase-Glo Max Luminescent Kinase Assay Kit was purchased from Promega (Madison, WI, United States). NTA sensor chips were purchased from GE Healthcare (Chicago, IL, United States). All compounds used as potential inhibitors of LsrK were purchased from Topscience Biotechnology Co. Ltd. (Shanghai, China). The QS reporter strain WHQ02 (E. coli BL21 ΔTolC pWHQ01) was donated by Huiqi Wen (Institute of Microbiology and Epidemiology, Academy of Military Sciences, Beijing, China). The plasmid pWHQ01 was constructed by cloning the lsr promoter and the luxCDABE luminescent gene. BamHI and XhoI were purchased from New England Biolabs (Ipswich, MA, United States). pET-28a was purchased from Novagen (Madison, WI, United States). Escherichia coli BL21 (DE3) cells were purchased from TransGen Biotech Co., LTD. (Beijing, China). A Ni-NTA column was purchased from Sangon Biotech (Shanghai, China). Sodium dodecyl sulfate-polyacrylamide gel electrophoresis (SDS-PAGE) and the Bradford Protein Assay Kit were purchased from Thermo Fisher Scientific (Waltham, MA, United States).
# (§2) WHQ02 cultured overnight were diluted 1:100 in fresh LB supplemented with 100 μg/mL ampicillin and grown at 30°C and until the logarithmic phase (OD600 = 0.4–0.6). The bacterial culture was centrifuged at 4,000 × g for 5 min, and the pellet was resuspended in fresh LB medium to prepare a suspension of 2 McFarland standard and added to the 96-well plate. In the experimental group, 74 compounds (final concentrations ranging from 100 to 3.125 μM) were added to reach a total volume of 100 µL. In addition, 100 µL LB medium with an equal volume of DMSO (negative control) or 100 µL LB supplemented with 2% glucose and the same volume of DMSO (positive control) were added. Bacteria was cultured at 37°C with shaking for 3 h. The […] of WHQ02 is directly regulated by the lsr promoter, reflecting the strength of QS. The luminescence and OD600 were measured using an Enspire 2300 microplate reader (Perkin Elmer). To further study the effect of compounds on bacterial growth, overnight cultured WHQ02 was diluted 1:1,000 with LB medium and added to 96 well plate. Then, the compounds were added to a 96-well plate (final concentration: 100 µM) and diluted in a gradient. The same volume of DMSO was added to the control group. The plates were incubated at 37°C for 18 h. OD600 values were recorded using an Enspire 2300 microplate reader. The experiment was performed in triplicate.
# LsrK [4] = conditions: Figure 2, cited from earlier work
# AI-2 QS = conditions: Figure 2, ref Gatta et al., cited from earlier work
# [5] = tested on: WHQ02 (E. coli BL21 ΔTolC pWHQ01); test: Growth inhibition of the reporter strain (OD600); assay type: cell-based; conditions: 100 to 3.13 μM
# Method: as §2
# The 12 hits showing >60% LsrK inhibition were tested for QS inhibition using cell-based AI-2-mediated QS interference assay, as previously described [Baba et al., 2006]). To ensure that lower luminescence was the result of QS inhibition not the chemical toxicity or antibacterial activity, strain growth inhibition was assessed concurrently. […] Therefore, a parallel experiment to test the MIC of compounds at a low bacterial density was conducted, indirectly reflecting the potential growth inhibition to avoid false positives.
# T1 sequence (Q8ZKQ6 whole entry): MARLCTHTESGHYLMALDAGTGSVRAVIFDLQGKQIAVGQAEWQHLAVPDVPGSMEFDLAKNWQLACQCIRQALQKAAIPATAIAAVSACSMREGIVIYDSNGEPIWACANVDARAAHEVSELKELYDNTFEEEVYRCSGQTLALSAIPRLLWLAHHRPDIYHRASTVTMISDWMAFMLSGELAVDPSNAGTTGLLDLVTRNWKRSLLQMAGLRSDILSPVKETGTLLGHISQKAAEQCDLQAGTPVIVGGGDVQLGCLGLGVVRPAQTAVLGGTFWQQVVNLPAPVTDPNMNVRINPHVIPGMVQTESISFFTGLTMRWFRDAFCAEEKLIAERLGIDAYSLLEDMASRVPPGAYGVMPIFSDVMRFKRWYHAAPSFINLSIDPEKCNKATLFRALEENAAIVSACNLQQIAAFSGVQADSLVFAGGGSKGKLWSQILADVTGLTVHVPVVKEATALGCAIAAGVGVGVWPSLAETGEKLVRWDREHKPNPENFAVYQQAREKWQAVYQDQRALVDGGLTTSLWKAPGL
structure (smiles),measurement,setting,value
Cc1c(O)cc(O)c2c(=O)c(O)c(-c3ccc(O)c(O)c3)oc12 [N025-0038],Kd,LsrK [1],30.3 µM
same,LsrK specific binding (in words),LsrK [1],specifically bound to LsrK; also recorded: exhibited LsrK specific binding
same,IC50,"LsrK [2]; 50 μM ATP, read-out: IC50A",26.6 ± 1.22 µM
same,IC50,"LsrK [2]; 100 μM ATP, read-out: IC50B",43.7 ± 4.31 µM
same,IC50,"LsrK [2]; 150 μM ATP, read-out: IC50C",68 ± 1.27 µM
same,inhibition at 200 µM,LsrK [2],80.5 ± 2.31%
same,type of LsrK inhibition,LsrK [2],ATP-competitive inhibitors
same,AI-2 QS inhibitory activity (in words),[3],significant QS inhibitory activities; also recorded: exhibited AI-2 QS inhibition at sub-minimum inhibitory concentrations; also recorded: exhibited QS inhibition at sub-MIC concentrations
same,IC50,[3],12.5 ± 0.99 µM
O=C(O)CC(=O)Nc1ccc2nc(N(Cc3ccccc3)C(=O)c3cc(Br)c(Br)[nH]3)sc2c1 [compound 2],IC50,"LsrK [4]; ref Gatta et al., 2020",15 ± 1 µM
same,IC50,AI-2 QS; 2020,17 µM
"C[C@]1(OC(=O)/C=C/c2ccccc2)C[C@@H](O)[C@]2(O)C=CO[C@@H](O[C@@H]3O[C@H](CO)[C@@H](O)[C@H](O)[C@H]3O)[C@@H]21 [compound 4, harpagoside]",IC50,"LsrK [4]; ref Gatta et al., 2019",10 µM
same,IC50,AI-2 QS; 2019,14 µM
O=C(O)CCc1ccc(-c2ccccc2)n1CC(=O)Nc1ccccc1C(F)(F)F [D135-0149],maximum growth inhibition,[5],< 40%
same,IC50,"LsrK [2]; 50 μM ATP, read-out: IC50A",21.8 ± 1.48 µM
same,IC50,"LsrK [2]; 100 μM ATP, read-out: IC50B",33.5 ± 2.52 µM
same,IC50,"LsrK [2]; 150 μM ATP, read-out: IC50C",80.1 ± 4.83 µM
same,inhibition at 200 µM,LsrK [2],83.9 ± 6.33%
same,type of LsrK inhibition,LsrK [2],ATP-competitive inhibitors
same,AI-2 QS inhibitory activity (in words),[3],significant QS inhibitory activities
same,maximum AI-2 QS inhibition,[3],> 80%
same,IC50,[3],22.1 ± 1.66 µM
Cc1ccc(C(=O)O)cc1NC(=O)c1nn2cccnc2c1Cl [Y502-2013],IC50,"LsrK [2]; 100 μM ATP, read-out: IC50B",140 ± 5.54 µM
same,inhibition at 200 µM,LsrK [2],69.1 ± 8.64%
same,IC50,[3],> 100 µM
CN(C)C(=O)C1CCCN1Cc1nc2sc(-c3ccccc3)cc2c(=O)[nH]1 (stereo not drawn) [Z196022762],Inhibition (%),LsrK [2]; 100 μM ATP,57.11 ± 2.22%
"O=C1C=CC(=C(c2ccc(O)cc2)c2ccc(O)cc2)C=C1 [compound 5, rosolic acid]",IC50,"LsrK [4]; ref Gatta et al., 2019",1 µM
same,IC50,AI-2 QS; 2019,11 µM
O=C(NC(Cc1c[nH]c2ccccc12)C(=O)O)c1ccccc1Cl (stereo not drawn) [Z85881721],Inhibition (%),LsrK [2]; 100 μM ATP,10.12 ± 8.78%
Cc1c(CC(=O)O)c(=O)oc2cc(OCc3ccc(C(=O)O)o3)ccc12 [Y040-9027],IC50,"LsrK [2]; 100 μM ATP, read-out: IC50B",90 ± 5.18 µM
same,inhibition at 200 µM,LsrK [2],94.1 ± 6.72%
same,IC50,[3],> 100 µM
CCOc1ccc(/C=N\NC(=S)Nc2cccc(C(=O)O)c2)cc1O [3284–0335],IC50,"LsrK [2]; 100 μM ATP, read-out: IC50B",84.9 ± 7.73 µM
same,inhibition at 200 µM,LsrK [2],67.6 ± 4.88%
same,IC50,[3],> 100 µM
O=C(O)C[C@H]1S/C(=N\N=C2\C(=O)Nc3ccccc32)N(c2ccc(O)cc2)C1=O [4515–0182],IC50,"LsrK [2]; 100 μM ATP, read-out: IC50B",52.1 ± 2.68 µM
same,inhibition at 200 µM,LsrK [2],83.7 ± 9.63%
same,IC50,[3],> 100 µM
O=C1NC(=S)S/C1=C\c1c[nH]c2ccc(OCc3ccccc3)cc12 [3681–1274],IC50,"LsrK [2]; 100 μM ATP, read-out: IC50B",133 ± 8.85 µM
same,inhibition at 200 µM,LsrK [2],66.2 ± 3.54%
same,AI-2 QS inhibitory activity (in words),[3],significant QS inhibitory activities
same,IC50,[3],42.2 ± 2.15 µM
C/C(=N/NC(=S)Nc1cccc(C(=O)O)c1)c1ccc(C)cc1 [3284–1358],maximum growth inhibition,[5],< 40%
same,IC50,"LsrK [2]; 50 μM ATP, read-out: IC50A",29.9 ± 1.95 µM
same,IC50,"LsrK [2]; 100 μM ATP, read-out: IC50B",41.8 ± 2.57 µM
same,IC50,"LsrK [2]; 150 μM ATP, read-out: IC50C",88.1 ± 3.89 µM
same,inhibition at 200 µM,LsrK [2],101 ± 3.82%
same,type of LsrK inhibition,LsrK [2],ATP-competitive inhibitors
same,AI-2 QS inhibitory activity (in words),[3],significant QS inhibitory activities
same,maximum AI-2 QS inhibition,[3],> 80%
same,IC50,[3],37.8 ± 3.18 µM
COC(=O)CSC1=NC(=O)C[C@H](c2ccc(Cl)cc2)[C@H]1C#N [2188–1861],IC50,"LsrK [2]; 100 μM ATP, read-out: IC50B",129 ± 6.85 µM
same,inhibition at 200 µM,LsrK [2],92.1 ± 6.68%
same,AI-2 QS inhibitory activity (in words),[3],significant QS inhibitory activities
same,IC50,[3],38.4 ± 3.35 µM
O=C(O)[C@@H]1[C@@H](C(=O)Nc2cc(C(F)(F)F)ccc2Cl)[C@H]2C=C[C@@H]1O2 [Y204-6349],IC50,"LsrK [2]; 100 μM ATP, read-out: IC50B",75.1 ± 1.19 µM
same,inhibition at 200 µM,LsrK [2],87.4 ± 2.6%
same,IC50,[3],> 100 µM
Cn1nc(-c2ccccc2)cc1C1COC2(CCCCC2)O1 (stereo not drawn) [compound 6],IC50,"LsrK [4]; ref Stotani et al., 2019",119 µM
O=C(O)C(=O)Nc1nc2ccc(NC(=O)c3cc(Br)c(Br)[nH]3)cc2s1 [compound 3],IC50,"LsrK [4]; ref Gatta et al., 2020",18 ± 2 µM
same,IC50,AI-2 QS; 2020,0.6 ± 0.1 µM
CC(C)c1ccc2nc(Cc3cccc(C(N)=O)c3)[nH]c(=O)c2c1 [Z951211480],Inhibition (%),LsrK [2]; 100 μM ATP,0%
Cc1ccc(Cl)c(Nc2ccccc2C(=O)O)c1Cl [compound 1],IC50,"LsrK [4]; ref Medarametla et al., 2018",178 µM
NC(=O)c1cc(Cc2ccccc2)sc1NC(=O)C1C2CCC(C2)C1C(=O)O (stereo not drawn) [Y205-6768],maximum growth inhibition,[5],< 40%
same,Kd,LsrK [1],8.49 µM
same,LsrK specific binding (in words),LsrK [1],specifically bound to LsrK; also recorded: exhibited LsrK specific binding
same,IC50,"LsrK [2]; 50 μM ATP, read-out: IC50A",8.73 ± 0.5 µM
same,IC50,"LsrK [2]; 100 μM ATP, read-out: IC50B",16.8 ± 0.76 µM
same,IC50,"LsrK [2]; 150 μM ATP, read-out: IC50C",26 ± 1.32 µM
same,inhibition at 200 µM,LsrK [2],101 ± 8.39%
same,type of LsrK inhibition,LsrK [2],ATP-competitive inhibitors
same,AI-2 QS inhibitory activity (in words),[3],significant QS inhibitory activities
same,maximum AI-2 QS inhibition,[3],> 80%
same,IC50,[3],11.3 ± 0.7 µM
O=C(O)CCn1c(=O)[nH]c(=O)c2ccccc21 [Z166653136],Inhibition (%),LsrK [2]; 100 μM ATP,0%
Cc1[nH]c(C(=O)N/N=C\c2ccc(O)c(O)c2)c(C)c1C(=O)N/N=C\c1ccc(O)c(O)c1 [5617–0915],IC50,"LsrK [2]; 100 μM ATP, read-out: IC50B",79.4 ± 4.55 µM
same,inhibition at 200 µM,LsrK [2],71.5 ± 4.33%
same,IC50,[3],> 100 µM
